Molecules are shown by their SMILES.

For the assay, the target named is CSF-1R (Homo sapiens, UniProt P07333). Briefly: Peptide (non-phosphorylated) assay, fluorescence polarization competition immunoassay. It is filed as biochemical. The following applies: 0.7 nM CSF-1R, 308 μM SYEGNSYTFIDPTQ peptide, 1 mM ATP, 80 min; mean of at least three determinations; read-out: c-fms Peptide IC50. The essentials: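 Read-out is fluorescence polarization: after EDTA quench, anti-phosphotyrosine antibody plus PTK green tracer compete with the phosphorylated peptide for 30 min. The CSF-1R reaction itself ran 80 min at room temperature after ATP addition. DMSO (4%) wells served as controls, positive controls pre-treated with EDTA.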
Sequence of CSF-1R (P07333 20-972): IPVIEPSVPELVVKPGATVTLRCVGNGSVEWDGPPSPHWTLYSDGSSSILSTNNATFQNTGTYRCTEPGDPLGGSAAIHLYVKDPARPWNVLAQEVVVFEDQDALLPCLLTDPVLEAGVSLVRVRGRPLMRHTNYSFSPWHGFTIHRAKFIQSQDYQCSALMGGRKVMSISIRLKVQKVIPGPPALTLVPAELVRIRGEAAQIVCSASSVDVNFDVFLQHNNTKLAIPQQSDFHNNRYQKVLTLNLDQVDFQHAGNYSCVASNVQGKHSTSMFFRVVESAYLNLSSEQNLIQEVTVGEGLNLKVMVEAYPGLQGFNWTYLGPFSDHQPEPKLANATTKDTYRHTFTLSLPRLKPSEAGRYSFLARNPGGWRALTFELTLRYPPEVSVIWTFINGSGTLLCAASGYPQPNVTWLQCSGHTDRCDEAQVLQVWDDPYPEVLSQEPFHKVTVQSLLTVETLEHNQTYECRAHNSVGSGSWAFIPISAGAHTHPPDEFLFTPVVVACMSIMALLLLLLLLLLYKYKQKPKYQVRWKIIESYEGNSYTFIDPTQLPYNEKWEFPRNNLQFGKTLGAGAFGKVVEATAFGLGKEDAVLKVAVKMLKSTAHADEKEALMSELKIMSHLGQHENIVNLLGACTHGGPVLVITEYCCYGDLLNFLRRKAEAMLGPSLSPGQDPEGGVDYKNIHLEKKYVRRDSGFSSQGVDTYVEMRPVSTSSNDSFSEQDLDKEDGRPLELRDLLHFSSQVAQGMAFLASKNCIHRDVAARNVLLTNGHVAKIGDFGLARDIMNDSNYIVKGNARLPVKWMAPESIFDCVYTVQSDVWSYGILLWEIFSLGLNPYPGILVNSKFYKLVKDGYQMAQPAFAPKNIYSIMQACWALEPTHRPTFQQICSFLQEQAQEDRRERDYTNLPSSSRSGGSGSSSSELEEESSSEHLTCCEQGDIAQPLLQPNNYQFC
Take `CCc1ccc(-n2cc(C(=O)NOC)c(=O)c3cnc(Nc4ccc(OCCOC)cc4)nc32)cc1` [Cpd 257, 8-(4-ethyl-phenyl)-2-[4-(2-methoxy-ethoxy)-phenylamino]-5-oxo-5,8-dihydro-pyrido[2,3-d]pyrimidine-6-carboxylic acid methoxy-amide]: the IC50 was found to be 1.2 nM.
In the case of `CONC(=O)c1cn(-c2ccc3c(c2)CCC3)c2nc(Nc3cccc(C4CCN(C)CC4)c3)ncc2c1=O` [Cpd 273, 8-indan-5-yl-2-[3-(1-methyl-piperidin-4-yl)-phenylamino]-5-oxo-5,8-dihydro-pyrido[2,3-d]pyrimidine-6-carboxylic acid methoxy-amide], the IC50 was 1 nM.
For the molecule `CONC(=O)c1cn(-c2ccc3c(c2)CCC3)c2nc(Nc3ccc(CCN4CC[C@H](O)C4)cc3)ncc2c1=O` [Cpd 255, 2-(4-{2-[(3S)-(3-hydroxy-pyrrolidin-1-yl)]-ethyl}-phenylamino)-8-indan-5-yl-5-oxo-5,8-dihydro-pyrido[2,3-d]pyrimidine-6-carboxylic acid methoxy-amide], the IC50 amounted to 0.67 nM.
The result for `CONC(=O)c1cn(-c2ccc3c(c2)CCC3)c2nc(Nc3ccc(CCCN4CCN(C)CC4)cc3)ncc2c1=O` [Cpd 151, 8-indan-5-yl-2-{4-[3-(4-methylpiperazin-1-yl)-propyl]-phenylamino}-5-oxo-5,8-dihydro-pyrido[2,3-d]pyrimidine-6-carboxylic acid methoxy-amide] reads 1.5 nM; that for `CN1CCN(CCc2ccc(Nc3ncc4c(=O)c(C(=O)NCCO)cn(-c5ccc6c(c5)CCC6)c4n3)cc2)CC1` [Cpd 65, 8-indan-5-yl-2-{4-[2-(4-methyl-piperazin-1-yl)-ethyl]-phenylamino}-5-oxo-5,8-dihydro-pyrido[2,3-d]pyrimidine-6-carboxylic acid (2-hydroxy-ethyl)-amide], 0.68 nM; that for `CN(C)C(=O)c1ccc(Nc2ncc3c(=O)c(C(N)=O)cn(-c4ccc5c(c4)CCC5)c3n2)cc1` [Cpd 123, 2-(4-dimethylcarbamoyl-phenylamino)-8-indan-5-yl-5-oxo-5,8-dihydro-pyrido[2,3-d]pyrimidine-6-carboxylic acid amide], 4.5 nM.
Next, `CONC(=O)c1cn(-c2ccc3c(c2)CCC3)c2nc(Nc3cccc(OC4CN5CCC4CC5)c3)ncc2c1=O` (centres unmarked) [Cpd 267, 2-[3-(1-aza-bicyclo[2.2.2]oct-3-yloxy)-phenylamino]-8-indan-5-yl-5-oxo-5,8-dihydro-pyrido[2,3-d]pyrimidine-6-carboxylic acid methoxy-amide]: 0.42 nM.
The result for `CONC(=O)c1cn(-c2ccc3c(c2)CCC3)c2nc(Nc3cccc(N4CCNCC4)c3)ncc2c1=O` [Cpd 2, 8-indan-5-yl-5-oxo-2-(3-piperazin-1-yl-phenylamino)-5,8-dihydro-pyrido[2,3-d]pyrimidine-6-carboxylic acid methoxy-amide] reads 0.56 nM; that for `CONC(=O)c1cn(-c2ccc3c(c2)CCC3)c2nc(Nc3ccc(CCN4CCCC4)cc3)ncc2c1=O` [Cpd 130, 8-indan-5-yl-5-oxo-2-[4-(2-pyrrolidin-1-yl-ethyl)-phenylamino]-5,8-dihydro-pyrido[2,3-d]pyrimidine-6-carboxylic acid methoxy-amide], 1.6 nM.
As for `CONC(=O)c1cn(-c2ccc3c(c2)CCC3)c2nc(Nc3ccc(CCO)cc3)ncc2c1=O` [Cpd 79, 2-[4-(2-hydroxy-ethyl)-phenylamino]-8-indan-5-yl-5-oxo-5,8-dihydro-pyrido[2,3-d]pyrimidine-6-carboxylic acid methoxy-amide], the IC50 came to 0.87 nM.
Next, `NC(=O)c1cn(-c2ccc3c(c2)CCC3)c2nc(Nc3ccc(CN4CCCC4=O)cc3)ncc2c1=O` [Cpd 8, 8-indan-5-yl-5-oxo-2-[4-(2-oxo-pyrrolidin-1-ylmethyl)-phenylamino]-5,8-dihydro-pyrido[2,3-d]pyrimidine-6-carboxylic acid amide]: 1.6 nM.

Source of the values: patent US20080114007A1 (priority 2006, published 2008).
